Read-outs that look alike come from different tables or passages of the source.
Test system: hiPSC-CMs (iCell-Cardiomyocytes^2)
Procedure, shortened: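 Monolayers of hiPSC-CMs on fibronectin-coated MEA plates, 50 K/well, kept at 37°C, 5% CO2; compounds added in 0.1% final DMSO after 5-min baseline. Field potential and impedance parameters expressed as mean ± SD percent change from baseline; arrhythmic events noted; cytotoxicity fluorescence normalized to DMSO, Kruskal-Wallis.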

COc1cccc2c1C(=O)c1c(O)c3c(c(O)c1C2=O)C[C@@](O)(C(=O)CO)C[C@@H]3O[C@H]1C[C@H](N)[C@H](O)[C@H](C)O1 [Doxorubicin]
BR (beating rate), % change from baseline (0.1 µM, 2h): 7±3%
Beating below threshold, number of observations/total well numbers (0.1 µM, 2h): 0/5
Cessation of beating, number of observations/total well numbers (0.1 µM, 2h): 0/5
EAD, number of observations/total well numbers (0.1 µM, 2h): 0/5
FPD (field-potential duration), % change from baseline (0.1 µM, 2h): -0.9±3.5%
FPDc (field-potential duration corrected by beat-rate), % change from baseline (0.1 µM, 2h): 1.2±2.7%
Flat T-wave-like, number of observations/total well numbers (0.1 µM, 2h): 0/5
BR (beating rate), % change from baseline (0.1 µM, 24h): 41±12 %
Beating below threshold, number of observations/total well numbers (0.1 µM, 24h): 0/5
Cessation of beating, number of observations/total well numbers (0.1 µM, 24h): 0/5
EAD, number of observations/total well numbers (0.1 µM, 24h): 0/5
FPD (field-potential duration), % change from baseline (0.1 µM, 24h): -18.2±8.6 %
FPDc (field-potential duration corrected by beat-rate), % change from baseline (0.1 µM, 24h): -8.8±6.9 %
Flat T-wave-like, number of observations/total well numbers (0.1 µM, 24h): 0/5
BR (beating rate), % change from baseline (0.1 µM, 48h): 26±8 %
Beating below threshold, number of observations/total well numbers (0.1 µM, 48h): 0/5
Cessation of beating, number of observations/total well numbers (0.1 µM, 48h): 0/5
EAD, number of observations/total well numbers (0.1 µM, 48h): 0/5
FPD (field-potential duration), % change from baseline (0.1 µM, 48h): -24.4±9.8 %
FPDc (field-potential duration corrected by beat-rate), % change from baseline (0.1 µM, 48h): -18.8±8.7 %
Flat T-wave-like, number of observations/total well numbers (0.1 µM, 48h): 0/5
BR (beating rate), % change from baseline (0.1 µM, 72h): 22±6 %
Beating below threshold, number of observations/total well numbers (0.1 µM, 72h): 0/5
Cessation of beating, number of observations/total well numbers (0.1 µM, 72h): 0/5
EAD, number of observations/total well numbers (0.1 µM, 72h): 0/5
FPD (field-potential duration), % change from baseline (0.1 µM, 72h): -25±8.7 %
FPDc (field-potential duration corrected by beat-rate), % change from baseline (0.1 µM, 72h): -20.4±8.9 %
Flat T-wave-like, number of observations/total well numbers (0.1 µM, 72h): 1/5
BR (beating rate), % change from baseline (0.1 µM, 96h): -7±13%
Beating below threshold, number of observations/total well numbers (0.1 µM, 96h): 0/5
Cessation of beating, number of observations/total well numbers (0.1 µM, 96h): 0/5
EAD, number of observations/total well numbers (0.1 µM, 96h): 0/5
FPD (field-potential duration), % change from baseline (0.1 µM, 96h): -11.7±0.4 %
FPDc (field-potential duration corrected by beat-rate), % change from baseline (0.1 µM, 96h): -16.2±0.1 %
Flat T-wave-like, number of observations/total well numbers (0.1 µM, 96h): 3/5
time point from which cessation of beating occurred in all wells (0.3 µM): 48 h
BR (beating rate), % change from baseline (0.3 µM, 2h): 2±2%
Beating below threshold, number of observations/total well numbers (0.3 µM, 2h): 0/5
Cessation of beating, number of observations/total well numbers (0.3 µM, 2h): 0/5
EAD, number of observations/total well numbers (0.3 µM, 2h): 0/5
FPD (field-potential duration), % change from baseline (0.3 µM, 2h): 2.2±0.8%
FPDc (field-potential duration corrected by beat-rate), % change from baseline (0.3 µM, 2h): 2.8±1.1%
Flat T-wave-like, number of observations/total well numbers (0.3 µM, 2h): 0/5
BR (beating rate), % change from baseline (0.3 µM, 24h): 24±8 %
Beating below threshold, number of observations/total well numbers (0.3 µM, 24h): 0/5
Cessation of beating, number of observations/total well numbers (0.3 µM, 24h): 0/5
EAD, number of observations/total well numbers (0.3 µM, 24h): 0/5
FPD (field-potential duration), % change from baseline (0.3 µM, 24h): -21±2.9 %
FPDc (field-potential duration corrected by beat-rate), % change from baseline (0.3 µM, 24h): -14.6±1.7 %
Flat T-wave-like, number of observations/total well numbers (0.3 µM, 24h): 2/5
BR (beating rate), % change from baseline (0.3 µM, 48h): 40±8 %
Beating below threshold, number of observations/total well numbers (0.3 µM, 48h): 0/5
Cessation of beating, number of observations/total well numbers (0.3 µM, 48h): 2/5
EAD, number of observations/total well numbers (0.3 µM, 48h): 0/5
Flat T-wave-like, number of observations/total well numbers (0.3 µM, 48h): 3/5
BR (beating rate), % change from baseline (0.3 µM, 72h): 39±0 %
Beating below threshold, number of observations/total well numbers (0.3 µM, 72h): 0/5
Cessation of beating, number of observations/total well numbers (0.3 µM, 72h): 4/5
EAD, number of observations/total well numbers (0.3 µM, 72h): 0/5
Flat T-wave-like, number of observations/total well numbers (0.3 µM, 72h): 1/5
Beating below threshold, number of observations/total well numbers (0.3 µM, 96h): 0/5
Cessation of beating, number of observations/total well numbers (0.3 µM, 96h): 5/5
EAD, number of observations/total well numbers (0.3 µM, 96h): 0/5
Flat T-wave-like, number of observations/total well numbers (0.3 µM, 96h): 0/5
time point from which cessation of beating occurred in all wells (1 µM): 48 h
BR (beating rate), % change from baseline (1 µM, 2h): 3±2%
Beating below threshold, number of observations/total well numbers (1 µM, 2h): 0/5
Cessation of beating, number of observations/total well numbers (1 µM, 2h): 0/5
EAD, number of observations/total well numbers (1 µM, 2h): 0/5
FPD (field-potential duration), % change from baseline (1 µM, 2h): 2.8±3.4%
FPDc (field-potential duration corrected by beat-rate), % change from baseline (1 µM, 2h): 4.2±3%
Flat T-wave-like, number of observations/total well numbers (1 µM, 2h): 0/5
BR (beating rate), % change from baseline (1 µM, 24h): 68±21 %
Beating below threshold, number of observations/total well numbers (1 µM, 24h): 0/5
Cessation of beating, number of observations/total well numbers (1 µM, 24h): 0/5
EAD, number of observations/total well numbers (1 µM, 24h): 0/5
Flat T-wave-like, number of observations/total well numbers (1 µM, 24h): 4/5
Beating below threshold, number of observations/total well numbers (1 µM, 48h): 0/5
Cessation of beating, number of observations/total well numbers (1 µM, 48h): 5/5
EAD, number of observations/total well numbers (1 µM, 48h): 0/5
Flat T-wave-like, number of observations/total well numbers (1 µM, 48h): 0/5
Beating below threshold, number of observations/total well numbers (1 µM, 72h): 0/5
Cessation of beating, number of observations/total well numbers (1 µM, 72h): 5/5
EAD, number of observations/total well numbers (1 µM, 72h): 0/5
Flat T-wave-like, number of observations/total well numbers (1 µM, 72h): 0/5
Beating below threshold, number of observations/total well numbers (1 µM, 96h): 0/5
Cessation of beating, number of observations/total well numbers (1 µM, 96h): 5/5
EAD, number of observations/total well numbers (1 µM, 96h): 0/5
Flat T-wave-like, number of observations/total well numbers (1 µM, 96h): 0/5
time point from which cessation of beating occurred in all wells (3 µM): 24 h
Beating below threshold, number of observations/total well numbers (3 µM, 72h): 0/5
Cessation of beating, number of observations/total well numbers (3 µM, 72h): 5/5
EAD, number of observations/total well numbers (3 µM, 72h): 0/5
Flat T-wave-like, number of observations/total well numbers (3 µM, 72h): 0/5
Beating below threshold, number of observations/total well numbers (3 µM, 96h): 0/5
Cessation of beating, number of observations/total well numbers (3 µM, 96h): 5/5
EAD, number of observations/total well numbers (3 µM, 96h): 0/5
Flat T-wave-like, number of observations/total well numbers (3 µM, 96h): 0/5
BR (beating rate), % change from baseline (3 µM, 2h): 1±2%
Beating below threshold, number of observations/total well numbers (3 µM, 2h): 0/5
Cessation of beating, number of observations/total well numbers (3 µM, 2h): 0/5
EAD, number of observations/total well numbers (3 µM, 2h): 0/5
FPD (field-potential duration), % change from baseline (3 µM, 2h): 3.9±2.4%
FPDc (field-potential duration corrected by beat-rate), % change from baseline (3 µM, 2h): 4.3±2.4%
Flat T-wave-like, number of observations/total well numbers (3 µM, 2h): 0/5
BR (beating rate), % change from baseline (3 µM, 24h): 41±36 %
Beating below threshold, number of observations/total well numbers (3 µM, 24h): 0/5
Cessation of beating, number of observations/total well numbers (3 µM, 24h): 1/5
EAD, number of observations/total well numbers (3 µM, 24h): 0/5
FPD (field-potential duration), % change from baseline (3 µM, 24h): -15.8±3.8 %
FPDc (field-potential duration corrected by beat-rate), % change from baseline (3 µM, 24h): -2.9±4.7 %
Flat T-wave-like, number of observations/total well numbers (3 µM, 24h): 2/5
Beating below threshold, number of observations/total well numbers (3 µM, 48h): 0/5
Cessation of beating, number of observations/total well numbers (3 µM, 48h): 5/5
EAD, number of observations/total well numbers (3 µM, 48h): 0/5
Flat T-wave-like, number of observations/total well numbers (3 µM, 48h): 0/5
